From US20150252370A1, “USE OF ATX INHIBITORS FOR TREATMENT OR PREVENTION OF INFLUENZA VIRUS A INFECTIONS” (Academia Sinica, priority 2014, published 2015)
Entries after “also recorded” stand apart in the source; their conditions may differ.

What was measured:
metastatic breast cancer = settings: mouse models of metastatic breast cancer; cited from earlier work
[1] = test system: Influenza A virus (IAV) (A/WSN/33, H1N1); format: cell-based
human AXL = target: T1, human AXL (Homo sapiens, UniProt P30530); format: cell-based
T1 construct: Human AXL (NM_021913.4) were PCR amplified using the primers human AXL forward; expressed in transfected cells
T1 sequence (P30530 26-894): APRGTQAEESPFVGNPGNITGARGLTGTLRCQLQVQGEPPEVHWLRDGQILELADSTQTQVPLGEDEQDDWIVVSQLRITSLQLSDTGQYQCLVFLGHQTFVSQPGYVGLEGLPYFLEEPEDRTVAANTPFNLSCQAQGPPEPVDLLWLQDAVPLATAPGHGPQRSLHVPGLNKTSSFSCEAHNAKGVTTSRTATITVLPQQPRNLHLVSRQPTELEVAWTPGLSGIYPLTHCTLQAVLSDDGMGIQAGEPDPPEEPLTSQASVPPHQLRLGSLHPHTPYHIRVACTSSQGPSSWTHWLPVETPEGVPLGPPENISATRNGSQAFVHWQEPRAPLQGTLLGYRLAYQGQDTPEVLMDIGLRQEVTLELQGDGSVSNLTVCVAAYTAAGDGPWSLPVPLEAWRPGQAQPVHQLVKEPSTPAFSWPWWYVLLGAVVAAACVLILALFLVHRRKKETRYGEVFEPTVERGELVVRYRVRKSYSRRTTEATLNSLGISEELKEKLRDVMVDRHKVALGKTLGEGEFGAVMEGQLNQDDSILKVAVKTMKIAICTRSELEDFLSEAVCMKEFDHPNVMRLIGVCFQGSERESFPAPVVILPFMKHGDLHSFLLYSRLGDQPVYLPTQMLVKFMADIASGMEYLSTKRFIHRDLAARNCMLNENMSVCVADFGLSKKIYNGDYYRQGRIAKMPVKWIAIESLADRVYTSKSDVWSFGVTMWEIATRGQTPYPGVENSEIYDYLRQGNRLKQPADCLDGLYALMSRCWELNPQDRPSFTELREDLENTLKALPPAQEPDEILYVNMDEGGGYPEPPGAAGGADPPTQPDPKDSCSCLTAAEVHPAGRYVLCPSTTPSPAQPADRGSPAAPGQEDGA

Nc1nc(Nc2ccc3c(c2)CCC(N2CCCC2)CC3)nn1-c1cc2c(nn1)-c1ccccc1CCC2 (stereo not shown) [R428, 1-(6,7-dihydro-5H-benzo[6,7]cyclohepta[1,2-c]pyridazin-3-yl)-N3-(7-(pyrrolidin-1-yl)-6,7,8,9-tetrahydro-5H-benzo[7]annulen-2-yl)-1H-1,2,4-triazole-3,5-diamine]
tumor spread and survival (metastatic breast cancer): block tumor spread and prolong survival
IAV replication (NP and NS1 protein expression) [1]: blocked virus infection; also recorded: significantly inhibited influenza A virus infection; also recorded: inhibited IAV replication
time of addition at which R428 inhibits IAV replication [1]: before or during the first hour, but not later
AXL autophosphorylation stimulated by Gas6 (human AXL): block autophosphorylation
